Among the data in PubChem BioAssay (NCI) are GI50 and TGI values, retold here.

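Cells were grown in 96-well plates and exposed to each compound for 48 hours at five concentrations; endpoints were interpolated linearly between bracketing concentrations, or set to the highest concentration if not reached. Abbreviation: GI50, concentration required for 50% inhibition of growth. At the TGI there is no net growth.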

Some test systems named below: CCRF-CEM leukemia; LOX IMVI melanoma; MCF7 breast; OVCAR-4 ovarian; OVCAR-8 ovarian; RPMI-8226 leukemia; SF-268 CNS; SK-MEL-28 melanoma; SW-620 colon; UACC-62 melanoma.
Common to all, as to assay: growth of human tumour cells (NCI), 48 h

Regarding `C=C1C(=O)O[C@H]2[C@H]1CC/C(Cn1cc(-c3ccccc3)nn1)=C\CC[C@@]1(C)O[C@@H]21`, the GI50 with CCRF-CEM leukemia is 0.992 µM; with LOX IMVI melanoma it was 0.808 µM; with MCF7 breast, 1.08 µM; in the test with OVCAR-4 ovarian, 3.22 µM; in the test on OVCAR-8 ovarian, 2.31 µM; in the test with RPMI-8226 leukemia, 1.71 µM. Also, the GI50 was 5.63 µM in the test on SF-268 CNS, 1.06 µM in the test with SK-MEL-28 melanoma, 1.5 µM in the test with SW-620 colon and 1.87 µM in the test on UACC-62 melanoma. The TGI came to 4.95 µM in the test on CCRF-CEM leukemia; 1.69 µM in the test on LOX IMVI melanoma; 3.32 µM in the test on MCF7 breast; 12.1 µM in the test on OVCAR-4 ovarian; 8.88 µM in the test on OVCAR-8 ovarian; 11.1 µM in the test on RPMI-8226 leukemia. For the same molecule, the TGI came out at 13.4 µM in the test on SF-268 CNS, 2.48 µM with SK-MEL-28 melanoma, 6.43 µM in the test with SW-620 colon and 8.22 µM with UACC-62 melanoma.
As for `CCN(CC)CCCCCCCNc1c2ccc(Cl)cc2nc2ccc(OC)cc12`, the GI50 with CCRF-CEM leukemia is 0.619 µM; in the test on LOX IMVI melanoma it was 0.275 µM; in the test with MCF7 breast it was 0.356 µM; in the test with OVCAR-4 ovarian, 0.913 µM; in the test with OVCAR-8 ovarian, 0.628 µM; in the test with RPMI-8226 leukemia it was 0.337 µM. Further, the GI50 in the test on SF-268 CNS is 1.03 µM; in the test with SK-MEL-28 melanoma, 1.91 µM; in the test with SW-620 colon, 0.376 µM; in the test on UACC-62 melanoma, 2.04 µM. Further, the TGI with CCRF-CEM leukemia was 3.89 µM; in the test on LOX IMVI melanoma, 1.17 µM; in the test on MCF7 breast it was 1.59 µM; with OVCAR-4 ovarian, 2.9 µM; in the test on OVCAR-8 ovarian it was 2.9 µM; in the test on RPMI-8226 leukemia, 1.3 µM. In addition, the TGI in the test on SF-268 CNS is 2.5 µM; with SK-MEL-28 melanoma, 3.64 µM; in the test on SW-620 colon it was 1.64 µM; in the test on UACC-62 melanoma it was 4.09 µM.
Regarding `O=C1c2ccccc2-c2c1c1ccccc1c(=O)n2CCCN1CCOCC1`, the GI50 in the test on CCRF-CEM leukemia is greater than 38.4 µM; in the test on LOX IMVI melanoma it was 8.87 µM; in the test on MCF7 breast, 9.31 µM; in the test on OVCAR-4 ovarian, greater than 100 µM; with OVCAR-8 ovarian, 7.26 µM; in the test with RPMI-8226 leukemia, greater than 44.4 µM. Moreover, the GI50 in the test with SF-268 CNS was 6.52 µM; in the test with SK-MEL-28 melanoma, greater than 100 µM; with SW-620 colon it was 20.2 µM; in the test on UACC-62 melanoma, 5.83 µM. Further, the TGI in the test on CCRF-CEM leukemia is greater than 100 µM; with LOX IMVI melanoma, 62.1 µM; with MCF7 breast it was greater than 100 µM; with OVCAR-4 ovarian, greater than 100 µM; in the test with OVCAR-8 ovarian, greater than 75.2 µM; in the test on RPMI-8226 leukemia, greater than 100 µM. Also, the TGI in the test with SF-268 CNS was 26.1 µM; with SK-MEL-28 melanoma it was greater than 100 µM; in the test with SW-620 colon it was greater than 100 µM; in the test on UACC-62 melanoma, 21 µM.
As to `Cc1ccc2c(=O)c3cccc(CC(=O)O)c3oc2c1C`, the GI50 in the test on CCRF-CEM leukemia, in the test with LOX IMVI melanoma, in the test on MCF7 breast, with OVCAR-4 ovarian, in the test with OVCAR-8 ovarian and in the test on RPMI-8226 leukemia was greater than 100 µM throughout. Also, the GI50 in the test with SF-268 CNS, in the test on SK-MEL-28 melanoma, in the test on SW-620 colon and in the test with UACC-62 melanoma was greater than 100 µM throughout. The TGI with CCRF-CEM leukemia, in the test on LOX IMVI melanoma, in the test on MCF7 breast, with OVCAR-4 ovarian, in the test on OVCAR-8 ovarian and in the test on RPMI-8226 leukemia was greater than 100 µM throughout. In addition, the TGI in the test on SF-268 CNS, with SK-MEL-28 melanoma, with SW-620 colon and in the test with UACC-62 melanoma was greater than 100 µM throughout.
In the case of `CCOC(CN=c1nc(N(C)C)ss1)OCC`, the TGI with CCRF-CEM leukemia is 4.33 µM; in the test on LOX IMVI melanoma, 31.2 µM; in the test with MCF7 breast, greater than 65.3 µM; in the test with OVCAR-4 ovarian, 33.1 µM; in the test with OVCAR-8 ovarian it was 46.7 µM; in the test on RPMI-8226 leukemia it was 8.54 µM. The TGI in the test with SF-268 CNS amounted to 59.8 µM; with SK-MEL-28 melanoma, 58.9 µM; in the test on SW-620 colon, 25.9 µM; in the test with UACC-62 melanoma it was 21.4 µM.
With `Cc1ccc2c(N)c(C(=O)N[C@H]3CCc4cc(N5CC6CCC(C5)N6)ccc4C3)sc2n1`, the GI50 in the test with CCRF-CEM leukemia is 0.228 µM; with LOX IMVI melanoma, 0.0761 µM; in the test with MCF7 breast, 0.283 µM; in the test on OVCAR-4 ovarian, 0.301 µM; with OVCAR-8 ovarian, 0.385 µM; in the test with RPMI-8226 leukemia, 0.764 µM. The GI50 with SF-268 CNS is 0.42 µM; with SK-MEL-28 melanoma it was 0.586 µM; in the test on SW-620 colon, 0.293 µM; with UACC-62 melanoma it was 0.709 µM. The TGI in the test on CCRF-CEM leukemia is greater than 33 µM; in the test on LOX IMVI melanoma, 0.405 µM; with MCF7 breast, 2.43 µM; in the test with OVCAR-4 ovarian, 1.96 µM; in the test on OVCAR-8 ovarian, 2.83 µM; in the test on RPMI-8226 leukemia it was 3.42 µM. Further, the TGI with SF-268 CNS is 2.51 µM; in the test on SK-MEL-28 melanoma, 2.81 µM; in the test with SW-620 colon, 2.13 µM; in the test with UACC-62 melanoma, 3.11 µM.
Turning to `COc1ccc(/C=C\c2cc(OC)c(OC)c(OC)c2)cc1OCC(=O)Nc1nc2ccc(C(F)(F)F)cc2s1`, the GI50 in the test with CCRF-CEM leukemia was 4.27 µM; with LOX IMVI melanoma, 4.01 µM; with MCF7 breast, 3.16 µM; in the test on OVCAR-4 ovarian, 4.66 µM; with OVCAR-8 ovarian, 3.86 µM; in the test with RPMI-8226 leukemia, 5.48 µM. Moreover, the GI50 is 3.85 µM with SF-268 CNS, 3 µM with SK-MEL-28 melanoma, 4.65 µM in the test on SW-620 colon and 3.9 µM in the test on UACC-62 melanoma. Also, the TGI in the test on CCRF-CEM leukemia was greater than 100 µM; with LOX IMVI melanoma, greater than 100 µM; in the test on MCF7 breast, 65.1 µM; in the test on OVCAR-4 ovarian, greater than 100 µM; in the test on OVCAR-8 ovarian it was greater than 100 µM; in the test on RPMI-8226 leukemia, greater than 100 µM. Besides, the TGI in the test with SF-268 CNS was 48.6 µM; with SK-MEL-28 melanoma, greater than 100 µM; with SW-620 colon, greater than 100 µM; in the test on UACC-62 melanoma it was greater than 100 µM.
In the case of `CC(C)(O)C1OCC(C2CCC3(C)C4=CCC5C(C)(C)C(O)CCC5(C)C4CCC23C)CC1O` (stereo unspecified), the TGI in the test on CCRF-CEM leukemia was greater than 100 µM; in the test with LOX IMVI melanoma, 42.7 µM; in the test with MCF7 breast it was 23.8 µM; in the test on OVCAR-4 ovarian, 27.5 µM; with OVCAR-8 ovarian, 27.9 µM; in the test with RPMI-8226 leukemia, 77.8 µM. Further, the TGI with SF-268 CNS amounted to 30.4 µM; with SK-MEL-28 melanoma, 29.2 µM; in the test with SW-620 colon it was 28.5 µM; with UACC-62 melanoma, 29.5 µM.
Consider `O=c1cc(-c2ccccc2)nc2n1CCN2Cc1ccccc1`, for which the GI50 in the test on CCRF-CEM leukemia is 16.2 µM; in the test with LOX IMVI melanoma, 29.8 µM; with MCF7 breast, 41.9 µM; in the test on OVCAR-4 ovarian it was 74.4 µM; with OVCAR-8 ovarian, 47.2 µM; with RPMI-8226 leukemia, 15.6 µM. For the same molecule, the GI50 in the test with SF-268 CNS was 46.9 µM; in the test on SK-MEL-28 melanoma, 60 µM; in the test on SW-620 colon, 39.1 µM; with UACC-62 melanoma, 19.8 µM. In addition, the TGI is 42.8 µM with CCRF-CEM leukemia; greater than 100 µM with LOX IMVI melanoma; greater than 100 µM with MCF7 breast; greater than 100 µM with OVCAR-4 ovarian; greater than 100 µM in the test on OVCAR-8 ovarian; 39.9 µM in the test with RPMI-8226 leukemia. Besides, the TGI is greater than 100 µM in the test with SF-268 CNS, greater than 100 µM in the test with SK-MEL-28 melanoma, greater than 100 µM in the test with SW-620 colon and 66.7 µM with UACC-62 melanoma.
As for `S=C(N/N=C/c1ccccn1)Nc1ccccn1`, the GI50 with CCRF-CEM leukemia is 0.358 µM; in the test on LOX IMVI melanoma it was 0.705 µM; with MCF7 breast it was 0.472 µM; with OVCAR-4 ovarian, 0.477 µM; in the test on OVCAR-8 ovarian it was 0.671 µM; with RPMI-8226 leukemia, 1.44 µM. Besides, the GI50 with SF-268 CNS was 2.29 µM; with SK-MEL-28 melanoma it was 2.51 µM; with SW-620 colon, 1.7 µM. Besides, the TGI in the test on CCRF-CEM leukemia is 17.5 µM; with LOX IMVI melanoma, 23.1 µM; in the test with MCF7 breast, greater than 100 µM; in the test with OVCAR-4 ovarian, 62.2 µM; in the test on OVCAR-8 ovarian, greater than 100 µM; in the test with RPMI-8226 leukemia it was greater than 100 µM. Further, the TGI with SF-268 CNS, with SK-MEL-28 melanoma and in the test with SW-620 colon was greater than 100 µM in each case.
In the case of `O=C1C=Cc2ccccc2/C1=C/c1[nH]c(=O)[nH]c1O`, the GI50 with CCRF-CEM leukemia is 4.01 µM; with LOX IMVI melanoma, 7 µM; in the test with MCF7 breast it was 2.4 µM; in the test on OVCAR-4 ovarian it was 4.22 µM; in the test with OVCAR-8 ovarian, 9.6 µM; with RPMI-8226 leukemia, 45.2 µM. Moreover, the GI50 in the test on SF-268 CNS was 7.27 µM; in the test on UACC-62 melanoma, 3.45 µM. Moreover, the TGI in the test on CCRF-CEM leukemia is greater than 100 µM; in the test on LOX IMVI melanoma, greater than 100 µM; in the test with MCF7 breast, 15.2 µM; with OVCAR-4 ovarian, 23.4 µM; with OVCAR-8 ovarian, 62.5 µM; in the test on RPMI-8226 leukemia it was greater than 100 µM. Also, the TGI with SF-268 CNS and in the test with UACC-62 melanoma was greater than 100 µM each time.
For `CC1=Cc2cc3[n-]c(cc4nc(cc5[n-]c(cc1n2)cc5C)C(C)=C4CCC(=O)O)c(CCC(=O)O)c3C.[Pd+2]`, the GI50 in the test on CCRF-CEM leukemia was 5.37 µM; in the test on LOX IMVI melanoma it was 15.7 µM; with MCF7 breast, greater than 100 µM; in the test with RPMI-8226 leukemia, 17.3 µM; in the test with SF-268 CNS, 20.6 µM; with SK-MEL-28 melanoma it was 3.06 µM. Also, the GI50 in the test with SW-620 colon is 15.2 µM; in the test with UACC-62 melanoma, 5.29 µM. Further, the TGI in the test with CCRF-CEM leukemia was 13.7 µM; in the test with LOX IMVI melanoma, 39.6 µM; in the test with MCF7 breast, greater than 100 µM; in the test with OVCAR-4 ovarian, greater than 46.8 µM; in the test on RPMI-8226 leukemia it was 36.9 µM; with SF-268 CNS, 47.7 µM. The TGI is 12.7 µM with SK-MEL-28 melanoma, greater than 63.4 µM in the test with SW-620 colon and 34.1 µM in the test on UACC-62 melanoma.
